Laboratory results reported in patent US20210032257A1, “(E)-1-(4-(DIMETHYLAMINO)BUT-2-ENOYL)PYRROLIDIN-3-YL 4-((3-ISOPROPYL-5-METHYLPYRAZOLO[1,5-A]PYRIMIDIN-7-YL)AMINO)PIPERIDINE-1-CARBOXYLATE FOR INHIBITING CDK7” (Eli Lilly and Company, priority 2017, published 2021).

Assays:
Experiment in all cases: Biomarker study proliferation (CellTiter-Glo)
Format in all cases: cell-based
NCIH460 = tested on: NCIH460
In short: (§1)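 Overnight-plated cells (5000/well, 37 °C, 5% CO2) receive compound diluted through an OPTIMEM + 10% FBS intermediate plate. After one week, CellTiter-Glo is added and luminescence is read.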

SW626 = tested on: SW626
In short: as §1

DMS53 = tested on: DMS53
In short: as §1

MDAMB468 = tested on: MDAMB468
In short: as §1

MDAMB231 = tested on: MDAMB231
In short: as §1

AN3CA = tested on: AN3CA
In short: as §1

NCIH2030 = tested on: NCIH2030
In short: as §1

JHH4 = tested on: JHH4
In short: as §1

SHSY5Y = tested on: SHSY5Y
In short: as §1

SNU1 = tested on: SNU1
In short: as §1

GL261 = tested on: GL261
In short: as §1

HGC27 = tested on: HGC27
In short: as §1

NCIH209 = tested on: NCIH209
In short: as §1

NCIH2228 = tested on: NCIH2228
In short: as §1

HEP3B217 = tested on: HEP3B217
In short: as §1

UACC812 = tested on: UACC812
In short: as §1

T98G = tested on: T98G
In short: as §1

NCIH2347 = tested on: NCIH2347
In short: as §1

Cc1cc(NC2CCN(C(=O)O[C@H]3CCN(C(=O)/C=C/CN(C)C)C3)CC2)n2ncc(C(C)C)c2n1 [Example 1, [(3S)-1-[(E)-4-(dimethylamino)but-2-enoyl]pyrrolidin-3-yl] 4-[(3-isopropyl-5-methyl-pyrazolo[1,5-a]pyrimidin-7-yl)amino]piperidine-1-carboxylate]
IC50 (NCIH460; Homo sapiens, NCI-H460, 168 h, read-out: Anti-proliferation effect IC50): 47 nM | Anti-proliferation effect % Inh. (NCIH460; NCIH460, LUNG, 7 days): 97% | Anti-proliferation effect Outcome (NCIH460; NCIH460, LUNG, 7 days): Cytotoxic (cytotoxic (IC50<1 μM and % inhibition ≥70%)) | IC50 (SW626; Homo sapiens, SW626, 168 h, read-out: Anti-proliferation effect IC50): 1100 nM | Anti-proliferation effect % Inh. (SW626; SW626, 7 days): 39% | Anti-proliferation effect Outcome (SW626; SW626, 7 days): Insensitive (insensitive (IC50≥1 μM)) | Anti-proliferation effect % Inh. (DMS53; DMS53, LUNG, 7 days): 66% | Anti-proliferation effect Outcome (DMS53; DMS53, LUNG, 7 days): Cytostatic (cytostatic (IC50<1 μM and % inhibition <70%)) | IC50 (DMS53; Homo sapiens, DMS-53, 168 h, read-out: Anti-proliferation effect IC50): 118 nM | IC50 (MDAMB468; Homo sapiens, MDA-MB-468, 168 h, read-out: Anti-proliferation effect IC50): 8 nM | Anti-proliferation effect % Inh. (MDAMB468; MDAMB468, BREAST, 7 days): 100% | Anti-proliferation effect Outcome (MDAMB468; MDAMB468, BREAST, 7 days): Cytotoxic (cytotoxic (IC50<1 μM and % inhibition ≥70%)) | IC50 (MDAMB231; Homo sapiens, MDA-MB-231, 168 h, read-out: Anti-proliferation effect IC50): 2820 nM | Anti-proliferation effect % Inh. (MDAMB231; MDAMB231, BREAST, 7 days): 23% | Anti-proliferation effect Outcome (MDAMB231; MDAMB231, BREAST, 7 days): Insensitive (insensitive (IC50≥1 μM)) | Anti-proliferation effect % Inh. (AN3CA; AN3CA, ENDOMETRIUM, 7 days): 67% | Anti-proliferation effect Outcome (AN3CA; AN3CA, ENDOMETRIUM, 7 days): Cytostatic (cytostatic (IC50<1 μM and % inhibition <70%)) | IC50 (AN3CA; Homo sapiens, AN3-CA, 168 h, read-out: Anti-proliferation effect IC50): 50 nM | IC50 (NCIH2030; Homo sapiens, NCI-H2030, 168 h, read-out: Anti-proliferation effect IC50): 5370 nM | Anti-proliferation effect % Inh. (NCIH2030; NCIH2030, LUNG, 7 days): 9% | Anti-proliferation effect Outcome (NCIH2030; NCIH2030, LUNG, 7 days): Insensitive (insensitive (IC50≥1 μM)) | Anti-proliferation effect % Inh. (JHH4; JHH4, LIVER, 7 days): 65% | Anti-proliferation effect Outcome (JHH4; JHH4, LIVER, 7 days): Cytostatic (cytostatic (IC50<1 μM and % inhibition <70%)) | IC50 (JHH4; JHH-4, 168 h, read-out: Anti-proliferation effect IC50): 166 nM | IC50 (SHSY5Y; Homo sapiens, SH-SY5Y, 168 h, read-out: Anti-proliferation effect IC50): 59 nM | Anti-proliferation effect % Inh. (SHSY5Y; SHSY5Y, CNS, 7 days): 95% | Anti-proliferation effect Outcome (SHSY5Y; SHSY5Y, CNS, 7 days): Cytotoxic (cytotoxic (IC50<1 μM and % inhibition ≥70%)) | IC50 (SNU1; Homo sapiens, SNU1, 168 h, read-out: Anti-proliferation effect IC50): 105 nM | Anti-proliferation effect % Inh. (SNU1; SNU1, STOMACH, 7 days): 68% | Anti-proliferation effect Outcome (SNU1; SNU1, STOMACH, 7 days): Cytostatic (cytostatic (IC50<1 μM and % inhibition <70%)) | Anti-proliferation effect % Inh. (GL261; GL261, BRAIN, 7 days): 85% | Anti-proliferation effect Outcome (GL261; GL261, BRAIN, 7 days): Cytotoxic (cytotoxic (IC50<1 μM and % inhibition ≥70%)) | IC50 (GL261; Mus musculus, GL261, 168 h, read-out: Anti-proliferation effect IC50): 38 nM | Anti-proliferation effect % Inh. (HGC27; HGC27, STOMACH, 7 days): 78% | Anti-proliferation effect Outcome (HGC27; HGC27, STOMACH, 7 days): Cytotoxic (cytotoxic (IC50<1 μM and % inhibition ≥70%)) | IC50 (HGC27; Homo sapiens, HGC-27, 168 h, read-out: Anti-proliferation effect IC50): 68 nM | IC50 (NCIH209; Homo sapiens, NCI-H209, 168 h, read-out: Anti-proliferation effect IC50): 40 nM | Anti-proliferation effect % Inh. (NCIH209; NCIH209, LUNG, 7 days): 83% | Anti-proliferation effect Outcome (NCIH209; NCIH209, LUNG, 7 days): Cytotoxic (cytotoxic (IC50<1 μM and % inhibition ≥70%)) | IC50 (NCIH2228; Homo sapiens, NCI-H2228, 168 h, read-out: Anti-proliferation effect IC50): 276 nM | Anti-proliferation effect % Inh. (NCIH2228; NCIH2228, LUNG, 7 days): 57% | Anti-proliferation effect Outcome (NCIH2228; NCIH2228, LUNG, 7 days): Cytostatic (cytostatic (IC50<1 μM and % inhibition <70%)) | IC50 (HEP3B217; 168 h, read-out: Anti-proliferation effect IC50): 33 nM | Anti-proliferation effect % Inh. (HEP3B217; HEP3B217, LIVER, 7 days): 66% | Anti-proliferation effect Outcome (HEP3B217; HEP3B217, LIVER, 7 days): Cytostatic (cytostatic (IC50<1 μM and % inhibition <70%)) | IC50 (UACC812; Homo sapiens, UACC-812, 168 h, read-out: Anti-proliferation effect IC50): 76 nM | Anti-proliferation effect % Inh. (UACC812; UACC812, BREAST, 7 days): 58% | Anti-proliferation effect Outcome (UACC812; UACC812, BREAST, 7 days): Cytostatic (cytostatic (IC50<1 μM and % inhibition <70%)) | Anti-proliferation effect % Inh. (T98G; CNS, 7 days): 44% | Anti-proliferation effect Outcome (T98G; CNS, 7 days): Insensitive (insensitive (IC50≥1 μM)) | IC50 (T98G; Homo sapiens, 168 h, read-out: Anti-proliferation effect IC50): 1370 nM | IC50 (NCIH2347; Homo sapiens, NCI-H2347, 168 h, read-out: Anti-proliferation effect IC50): 661 nM | Anti-proliferation effect % Inh. (NCIH2347; NCIH2347, LUNG, 7 days): 45% | Anti-proliferation effect Outcome (NCIH2347; NCIH2347, LUNG, 7 days): Cytostatic (cytostatic (IC50<1 μM and % inhibition <70%))
